For seven compounds, IC50 results are on record in patent US7674803B2, “Thiazolypiperidine derivatives as MTP inhibitors” (Merck Patent GmbH, priority 2003, dated 2010).

Test [1] deals with T1, microsomal triglyceride transfer protein (MTP) (Mesocricetus auratus, UniProt P55158).
T1 construct: The supernatant comprising the soluble MTP is dialysed; from tissue; host or cells: golden hamster liver microsomes, deoxycholate-solubilised
T1 sequence (P55158 19-895): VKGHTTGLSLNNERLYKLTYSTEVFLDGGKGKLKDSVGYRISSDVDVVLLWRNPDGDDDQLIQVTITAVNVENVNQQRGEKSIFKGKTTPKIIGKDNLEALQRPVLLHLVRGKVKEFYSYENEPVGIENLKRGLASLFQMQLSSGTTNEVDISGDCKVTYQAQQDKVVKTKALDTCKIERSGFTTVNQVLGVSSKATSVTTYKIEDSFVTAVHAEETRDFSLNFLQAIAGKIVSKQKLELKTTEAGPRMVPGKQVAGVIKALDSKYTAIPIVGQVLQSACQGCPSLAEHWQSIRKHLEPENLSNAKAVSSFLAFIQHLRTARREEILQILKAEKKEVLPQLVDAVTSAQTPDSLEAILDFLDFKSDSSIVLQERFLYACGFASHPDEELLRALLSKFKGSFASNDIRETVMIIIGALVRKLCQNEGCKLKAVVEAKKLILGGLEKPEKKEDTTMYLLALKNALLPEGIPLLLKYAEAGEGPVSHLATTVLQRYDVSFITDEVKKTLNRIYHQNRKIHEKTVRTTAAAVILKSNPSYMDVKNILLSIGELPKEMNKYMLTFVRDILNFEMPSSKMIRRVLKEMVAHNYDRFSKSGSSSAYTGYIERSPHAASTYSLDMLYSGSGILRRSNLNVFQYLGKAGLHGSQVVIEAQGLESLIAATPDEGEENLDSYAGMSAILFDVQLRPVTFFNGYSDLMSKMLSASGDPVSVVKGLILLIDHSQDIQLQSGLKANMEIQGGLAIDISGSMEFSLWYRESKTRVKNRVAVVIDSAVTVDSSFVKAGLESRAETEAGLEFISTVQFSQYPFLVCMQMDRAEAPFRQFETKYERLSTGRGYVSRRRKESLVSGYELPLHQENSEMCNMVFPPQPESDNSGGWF
Description: Inhibition of MTP activity (transfer of labelled triglyceride from donor to acceptor particle, SPA). The class given is biochemical. Particulars: MTP from golden hamster liver microsomes; [3H]-triolein transfer to LDL-biot; incubation 18-24 hours at 37° C.; read-out: IC50, concentration that allows a 50% inhibition of MTP. How it is done: Analysis of the Inhibition of MTP Activity
The inhibition of the activity of microsomal triglyceride transfer protein (MTP) was tested by using the following operating protocol.
The inhibition of MTP activity with a compound can be quantified by observing the inhibition of the transfer of a labelled triglyceride, from a donor particle to an acceptor particle, in the presence of MTP. The procedure for the preparation of MTP is based on the method by Wetterau and Zilversmit (Biochem. Biophys. Acta (1986) 875, 610). A few grams of golden hamster liver are taken and then rinsed several times in a 250 mM sucrose solution at 0° C. All the following steps proceed at +4° C. A homogenate at a concentration of 50% in 250 mM sucrose is prepared using a Teflon mill and then centrifuged for 10 minutes at 10 000× g at +4° C. The supernatant is then centrifuged at 105 000× g for 75 minutes at +4° C. The supernatant is discarded and the microsomal pellet is taken up in 3 ml (per g of starting liver) of Tris/HCl 150 mM pH 8.0. 1-ml aliquot fractions are stored at −80° C. until the time of use.
After thawing a fraction of microsomes (1 ml), 12 ml of refrigerated Tris/HCl 50 mM, KCl 50 mM, MgCl2 5 mM pH 7.4 buffers and 1.2 ml of deoxycholate (0.54% in water) are added. After incubation for 30 minutes at +4° C. with gentle agitation, the suspension is centrifuged at 105 000× g for 75 minutes. The supernatant comprising the soluble MTP is dialysed against Tris/HCl 150 mM, NaCl 40 mM, EDTA 1 mM, 0.02% sodium azide pH 7.4 buffer (5 times one litre over 2-3 days). The MTP is stored at +4° C., is stable for at least 30 days and is used in unmodified form in the test.
The donor particles (liposomes) are prepared from 208 μL of L-phosphatidylcholine at a concentration of 10 mg/ml in chloroform, and 480 μL of. [3H]-triolein at a concentration of 0.5 mCi/ml in toluene. After stirring, the solution is evaporated under nitrogen, taken up in 6 ml of Tris/HCl 50 mM, KCl 50 mM, MgCl2 5 mM pH 7.4 buffer and incubated in an ultrasound bath for 30 minutes at room temperature. The liposomes are stored at +4° C. and sonicated again for 10 minutes before each use.
The acceptor particles are biotinylated low density lipoproteins (LDL-biot). These particles are supplied by the company Amersham.
The reaction mixture is prepared in untreated 1/2 well white plates (Corning Costar) by addition, in the following order, of: 5 μL of HEPES 50 mM, NaCl 150 mM, BSA 0.1% (w/v), 0.05% sodium azide (w/v), pH 7.4 buffer; 5 μL of liposomes; 5 μL of LDL-biot; 5 μL of test products in DMSO; 5 μL of MTP. After incubation for 18-24 hours at 37° C., the reaction is stopped by adding 100 μL of Amersham SPA (Scintillation Proximity Assay) beads coupled to streptavidin, and the radioactivity is counted using a Top Count (Packard) machine at least one hour later. The inhibition of the transfer of the triglycerides with a compound is reflected by a reduction in the transferred radioactivity.
The results are expressed in terms of the IC50, i.e. the concentration that allows a 50% inhibition of MTP.
Background: Liver microsomes are vesicles of endoplasmic reticulum, rich in cytochrome P450 enzymes.

The test system of test [2] is apo B secretion in HepG2 cells. Description: Inhibition of apo B secretion in HepG2 cells (sandwich-ELISA). In kind it is cell-based. Particulars: 24 hours incubation, culture supernatant tested by ELISA specific for human apo B, read-out: IC50, concentration that produces a 50% inhibition of apo B secretion in the HepG2 cells. How it is done: Analysis of the Reaction of apo B in the HepG2 Human Cell Line:
The activity of a compound according to the invention can be evaluated by measuring the inhibition of apo B secretion in HepG2 cells.
The HepG2 cells (ECACC—No. 85011430) are used as model in the study of the in vitro hepatic secretion of lipoproteins (Dixon J. and Ginsberg H., J. i Lipid. Res., 1993, 34, 167-179).
The HepG2 cells are cultured in Dulbecco's modified Eagle's medium comprising 10% foetal calf serum (DMEM and FBS-Gibco) in 96-well plates under an atmosphere of 5% carbon dioxide for 24 hours (about 70% confluence).
The test compounds are dissolved at a concentration of 2 or 10 mM in dimethyl sulfoxide (DMSO). Serial dilutions (1:3.16) are made in DMSO and are added (1:200—Robot Multimek Beckman) to the growth medium (200 μL) and then finally incubated for 24 hours in the various wells containing the HepG2cells.
The 24-hour culture supernatant diluted to 1:5 (phosphate-buffered saline: PBS comprising 1% bovine serum albumin) is tested according to a sandwich-ELISA method specific for human apo B.
The results are expressed in terms of IC50, i.e. the concentration that produce a 50% inhibition of apo B secretion in the HepG2 cells.

Turning to `CCN(C(=O)c1csc(C2CCN(C(=O)c3cccc(C)c3-c3ccc(OC(F)(F)F)cc3)CC2)n1)C(C)C(=O)c1ccccc1` (stereo not shown) [Example 1, 2-[1-(6-Methyl-4’-trifluoromethoxybiphenyl-2-carbonyl)piperid-4-yl]thiazol-4-carbonyl[N-ethyl-N-(1-methyl-2-oxo-2-phenylethyl)]amide], the IC50 turned out to be 51 nM in test [1] and 20 nM in test [2]. For `CCN(C(=O)c1csc(C2CCN(C(=O)c3ccccc3-c3ccc(C(F)(F)F)cc3)CC2)n1)C(C)C(=O)c1ccccc1` (stereo not shown) [Example 3], in that order: 57 nM and 12 nM. For `CC(C(=O)c1ccccc1)N(C)C(=O)c1csc(C2CCN(C(=O)c3ccccc3-c3ccc(C(F)(F)F)cc3)CC2)n1` (stereo not shown) [Example 4], in that order: 720 nM and 307 nM. For `C[C@H](C(=O)c1ccccc1)N(C)C(=O)c1csc(C2CCN(C(=O)c3ccccc3-c3ccc(C(F)(F)F)cc3)CC2)n1` [Example 5], in that order: 660 nM and 286 nM. With `CCN(C(=O)c1csc(C2CCN(C(=O)c3ccccc3-c3ccc(C(F)(F)F)cc3)CC2)n1)C(C)C(=O)c1cccnc1` (stereo not shown) [Example 6], the IC50 in test [1] was 385 nM; in test [2], 288 nM. Consider `CCN(C(=O)c1csc(C2CCN(C(=O)c3ccccc3-c3ccc(C(F)(F)F)cc3)CC2)n1)C(C#N)c1ccccc1` (stereo not shown) [Example 9], for which the IC50 in test [1] is 58 nM; in test [2], 7 nM. For `CC(C)N(C(=O)c1csc(C2CCN(C(=O)c3ccccc3-c3ccc(C(F)(F)F)cc3)CC2)n1)C(C#N)c1ccccc1` (stereo not shown) [Example 10], in test [1], the IC50 came to 167 nM.
